Experimental data reported in US10202411B2, “3′-substituted methyl or alkynyl nucleosides nucleotides for the treatment of HCV” (priority 2014, dated 2019).
Where two headings read alike, the source gives them in different places.

Experiments:
[1] = target: HCV genotype 1b replicon; test: HCV replicon assay (Zluc luciferase reporter); type: cell-based
Protocol: Huh-7-derived cell line (Zluc) that harbors an HCV genotype 1b replicon and a luciferase reporter gene was grown in Dulbecco's Modified Eagle Medium (DMEM) supplemented with 10% fetal bovine serum, 2 mM GlutaMAX, 1% MEM nonessential amino acids, 100 IU/mL penicillin, 100 μg/mL streptomycin, and 0.5 mg/mL Geneticin® (G418). For dose response testing the cells were seeded in 96-well plates at 7.5×10^3 cells per well in a volume of 50 μL, and incubated at 37° C./5% CO2. Drug solutions were made up freshly in Huh-7 media as 2× stocks. Ten additional 5-fold dilutions were prepared from these stocks in DMEM without G418. At least three hours after Zluc cells were seeded, drug treatment was initiated by adding 50 μL of drug dilutions to the plates in duplicate. Final concentrations of drug ranged from 100 μM to 0.0000512 μM. Cells were then incubated at 37° C./5% CO2. Alternatively, compounds were tested at two concentrations (1 μM and 10 μM). […] After 72 hours of incubation, the inhibition of HCV replication was measured by quantification of photons emitted after mono-oxygenation of 5′-fluoroluciferin to oxyfluoroluciferin by firefly luciferase. For this, media was removed from the plates via gentle tapping. Fifty microliters of ONE-glo luciferase assay reagent was added to each well. The plates were shaken gently for 3 min at room temperature and luminescence was measured on a Victor^3 V 1420 multilabel counter (Perkin Elmer) with a 1 second read time using a 700 nm cut-off filter. The EC50 values were calculated from dose response curves from the resulting best-fit equations determined by Microsoft Excel and XLfit 4.1 software. When screening at two fixed concentrations, the results were expressed as % inhibition at 1 μM and 10 μM.

[2] = system: Zluc cells; test: Cytotoxicity evaluation, CellTiter-Blue Cell Viability Assay; details: read-out: HCV Replicon CC50; Zluc cells, CellTiter-Blue cell viability
[3] = in vitro; details: human
[4] = Pharmacokinetics of liver triphosphate following a single oral dose in CD-1 mice; type: in vivo; details: CD-1 male mice; for Ms Liver TP AUC: integrated concentration; for Ms Liver TP Cmax: single point concentration
Protocol: A single oral dose of Compound 1 at 10 mg/kg in PEG 200 (dose volume 5 mL/kg) was administered to nine CD-1 male mice. Five untreated animals were used for the collection of control liver. Liver samples were collected from three animals per time point at 4, 12 and 24 hours post dose. Liver specimens were collected from all animals immediately after the incision. Freezing forceps stored in liquid nitrogen were used to freeze the liver before excision.
Liver samples were analyzed for the active species nucleoside triphosphate by LC-MS/MS. The triphosphate levels were assayed by homogenizing (on ice) a known weight of mouse liver with 4× volume of 0.95 M trichloroacetic acid (TCA). Internal standard solution was added to the homogenate followed by neutralization with 20% ammonium hydroxide solution and addition of 500 μL 1% formic acid. The tissue samples were extracted by weak anion exchange solid phase extraction (SPE). Post extraction, the eluates were evaporated under nitrogen, followed by reconstitution before injection onto the LC-MS/MS system. The samples were chromatographed on a Luna NH2 column using a gradient system of ammonium acetate (1 mM to 20 mM and pH 8.0 to pH 10.0) in water and acetonitrile (70:30). The analyte was detected and quantified by tandem mass spectrometry in positive ion mode on an API4000 equipped with a Turbo Ionspray® interface.

[5] = target: wild-type HCV genotype 1b NS5B protein (Hepatitis C virus genotype 1b (isolate Con1) (HCV), UniProt Q9WMX2); test: HCV polymerase enzyme assay, wild-type; type: biochemical; details: nucleoside triphosphate form, recombinant HCV genotype 1b NS5B
Text: (§1) Test compounds in the form of nucleoside triphosphates were examined for inhibitory activity against purified HCV polymerase in a standard assay. Bacterial expression constructs encoding the approximately 65 kDa HCV genotype 1b NS5B protein were used to generate recombinant HCV polymerases (with a deletion of the 21 carboxy terminal amino acids). Both the wild-type genotype 1b protein and protein containing the S282T mutation were expressed and purified for use in the enzymatic activity assay.
(§2) The enzymatic activity assay measured the inhibitory effect of increasing concentrations of test compound on the incorporation of α-[^33P]-labeled nucleotide into trichloroacetic acid-precipitable material. Recombinant polymerase and synthetic RNA template were combined in reaction buffer containing ribonucleoside triphosphates, α-[^33P]-labeled nucleotide and eight concentrations of test compound in three-fold dilutions. Reactions were incubated for two hours at 30° C.
(§3) Reactions were terminated by the addition of ice-cold trichloroacetic acid and sodium pyrophosphate to promote precipitation of newly-synthesized ribonucleic acid. Precipitable material from the reactions was collected by filtration onto 96-well filter plates, washed extensively with water, and quantified by liquid scintillation.
(§4) The inhibitory activity of test compounds was determined by fitting results to dose-response curves using XLfit software.

[6] = target: HCV genotype 1b NS5B protein containing the S282T mutation (Hepatitis C virus genotype 1b (isolate Con1) (HCV), UniProt Q9WMX2, S2701T); test: HCV polymerase enzyme assay, S282T mutant; type: biochemical; details: nucleoside triphosphate form, recombinant HCV genotype 1b NS5B
Text: as §1
as §2, with “Reactions were incubated for two hours at 30° C.” left out
as §3, §4

[7] = Huh-7-derived Zluc cells, genotype 1b replicon, luciferase, 72 hours; read-out: HCV Replicon EC50
[8] = Hepatitis C virus; Huh-7-derived Zluc cells, genotype 1b replicon, luciferase, 72 hours; read-out: HCV Replicon EC50

| Compound | EC50 [1, 7] [µM] | CC50 [2] [µM] | EC50 [1, 8] [µM] | CC50 [3] [µM] | further results |
| --- | --- | --- | --- | --- | --- |
| CC(C)OC(=O)[C@H](C)NP(=O)(OCCSC(=O)C(C)(C)C)OC[C@H]1O[C@@H](n2ccc(N)nc2=O)[C@H](O)[C@@H]1CO (single isomer, unassigned) [Compound 106b (Mixture of diastereomers)] | > 10 | > 50 | – | – | – |
| CC(C)OP1(=O)OC[C@H]2[C@@H](O)[C@H](n3ccc(=O)[nH]c3=O)O[C@@H]2CO1 (single isomer, unassigned) [Compound 108 (Diastereomer 2)] | > 10 | > 50 | – | – | – |
| CC(C)OC(=O)[C@@H](C)NP1(=O)OC[C@H]2[C@@H](O)[C@H](n3ccc(=O)[nH]c3=O)O[C@@H]2CO1 (single isomer, unassigned) [Compound 110a (Diastereomer 2)] | > 10 | > 50 | – | – | – |
| C[C@@H](NP1(=O)OC[C@H]2[C@@H](O)[C@H](n3ccc(=O)[nH]c3=O)O[C@@H]2CO1)C(=O)OCc1ccccc1 (single isomer, unassigned) [Compound 120a (Diastereomer 2)] | > 10 | > 50 | – | – | – |
| CC(C)OC(=O)[C@@H](C)NP(=S)(OC[C@H]1O[C@@H](n2ccc(=O)[nH]c2=O)[C@H](O)[C@@H]1CO)Oc1ccccc1 (single isomer, unassigned) [Compound 122a Diastereomer 2] | – | > 50 | – | – | EC50 ([1]; read-out: HCV Replicon EC50; Huh-7-derived Zluc cells, genotype 1b replicon, luciferase, 72 hours): > 10 µM |
| C[C@@H](NP(=O)(OC[C@H]1O[C@@H](n2ccc(=O)[nH]c2=O)[C@H](O)[C@@H]1CO)Oc1ccccc1)C(=O)OCc1ccccc1 (single isomer, unassigned) [Compound 123a Diastereomer 2] | > 10 | > 50 | – | – | – |
| C[C@@H](NP(=O)(OC[C@H]1O[C@@H](n2cnc3c(=O)[nH]c(N)nc32)[C@H](O)[C@@H]1CF)Oc1ccccc1)C(=O)OC1CCCC1 (single isomer, unassigned) [Compound 124a Diastereomer 2] | > 10 | > 50 | – | – | – |
| CCOc1nc(N)nc2c1ncn2[C@@H]1O[C@H](COP(=O)(N[C@H](C)C(=O)OC(C)C)Oc2ccccc2)[C@@H](CF)[C@H]1O (single isomer, unassigned) [Compound 125a Diastereomer 1] | – | – | > 10 | > 50 | Ms Liver TP AUC [4]: +++ (500 <+++ ≤1500); Ms Liver TP Cmax [4]: +++ (50 < +++ ≤100) |
| CCOc1nc(N)nc2c1ncn2[C@@H]1O[C@H](COP(=O)(N[C@H](C)C(=O)OC(C)C)Oc2ccccc2)[C@@H](CF)[C@H]1O (single isomer, unassigned) [Compound 125a Diastereomer 2] | > 10 | > 50 | – | – | Ms Liver TP AUC [4]: +++ (500 <+++ ≤1500); Ms Liver TP Cmax [4]: +++ (50 < +++ ≤100) |
| CC(O)[C@H]1[C@@H](O)[C@H](n2ccc(=O)[nH]c2=O)O[C@@H]1CO (single isomer, unassigned) [Compound 211 (Single Isomer)] | – | – | > 10 | > 50 | – |
| CC(C)(C)C(=O)SCCOP(=O)(OCCSC(=O)C(C)(C)C)OC[C@H]1O[C@@H](n2cnc3c(=O)[nH]c(N)nc32)[C@H](O)[C@@H]1CO [Compound 101] | – | – | > 10 | > 50 | – |
| CC(C)OC(=O)CCCOP(=O)(O)OC[C@H]1O[C@@H](n2ccc(=O)[nH]c2=O)[C@H](O)[C@@H]1CO [Compound 115] | – | – | > 10 | > 50 | – |
| CC(C)OC(=O)C(C)NP(=O)(NC(C)C(=O)OC(C)C)OC[C@H]1O[C@@H](n2ccc(=O)[nH]c2=O)[C@H](O)[C@@H]1CO (some centres unmarked) [Compound 116] | > 10 | > 50 | – | – | – |
| O=c1ccn([C@@H]2O[C@@H]3COP(=O)(O)OC[C@H]3[C@H]2O)c(=O)[nH]1 [Compound 118] | – | – | > 10 | > 50 | – |
| CCOC(=O)[C@H](CC(C)C)NP(=O)(N[C@@H](CC(C)C)C(=O)OCC)OC[C@H]1O[C@@H](n2cnc3c(OCC)nc(N)nc32)[C@H](O)[C@@H]1CF [Compound 129a] | – | – | > 10 | > 50 | – |
| O=c1ccn([C@@H]2O[C@H](CO)[C@@H](C(F)F)[C@H]2O)c(=O)[nH]1 [Compound 201] | – | – | > 10 | > 50 | – |
| O=c1ccn([C@@H]2O[C@H](CO)[C@@H](CF)[C@H]2O)c(=O)[nH]1 [Compound 202] | – | – | > 10 | > 50 | – |

| Compound | EC50 [1, 7] [µM] | CC50 [2] [µM] | EC50 [1, 8] [µM] | CC50 [3] [µM] | further results |
| --- | --- | --- | --- | --- | --- |
| Nc1ccn([C@@H]2O[C@H](CO)[C@@H](C(F)F)[C@H]2O)c(=O)n1 [Compound 203] | – | – | > 10 | > 50 | – |
| Nc1ccn([C@@H]2O[C@H](CO)[C@@H](CF)[C@H]2O)c(=O)n1 [Compound 204] | – | – | > 10 | > 50 | – |
| O=c1ccn([C@@H]2O[C@H](CO)[C@@H](CO)[C@H]2O)c(=O)[nH]1 [Compound 205] | – | – | > 10 | > 50 | – |
| Nc1ccn([C@@H]2O[C@H](CO)[C@@H](CO)[C@H]2O)c(=O)n1 [Compound 206] | – | – | > 10 | > 50 | – |
| Nc1ncnc2c1ncn2[C@@H]1O[C@H](CO)[C@@H](CO)[C@H]1O [Compound 207] | – | – | > 10 | > 50 | – |
| Nc1nc2c(ncn2[C@@H]2O[C@H](CO)[C@@H](CO)[C@H]2O)c(=O)[nH]1 [Compound 208] | > 10 | > 50 | – | – | – |
| Nc1nc(SCCO)c2ncn([C@@H]3O[C@H](CO)[C@@H](CO)[C@H]3O)c2n1 [Compound 209] | > 10 | > 50 | – | – | – |
| CC(=O)OC[C@H]1[C@@H](OC(C)=O)[C@H](n2ccc(=O)[nH]c2=O)O[C@@H]1CO [Compound 212] | – | – | > 10 | > 50 | – |
| CC(=O)OC[C@H]1[C@@H](OC(C)=O)[C@H](n2ccc(N)nc2=O)O[C@@H]1CO [Compound 213] | – | – | > 10 | > 50 | – |
| Nc1ncnc2c1ncn2[C@@H]1O[C@H](CO)[C@@H](CF)[C@H]1O [Compound 225] | – | – | > 10 | > 50 | – |
| Nc1nc2c(ncn2[C@@H]2O[C@H](CO)[C@@H](CF)[C@H]2O)c(=O)[nH]1 [Compound 226] | – | – | > 10 | > 50 | – |
| CCOc1nc(N)nc2c1ncn2[C@@H]1O[C@H](CO)[C@@H](CO)[C@H]1O [Compound 227] | – | – | > 10 | > 50 | – |
| Nc1ncnc2c1ncn2[C@@H]1O[C@H](COP(=O)(O)OP(=O)(O)OP(=O)(O)O)[C@@H](CO)[C@H]1O [Compound 307] | – | – | – | – | IC50 [5]: 0.25 to 1 µM |
| Nc1nc2c(ncn2[C@@H]2O[C@H](COP(=O)(O)OP(=O)(O)OP(=O)(O)O)[C@@H](CO)[C@H]2O)c(=O)[nH]1 [Compound 308] | – | – | – | – | IC50 [6]: < 0.25 µM; IC50 [5]: < 0.25 µM |
| Nc1ncnc2c1ncn2[C@@H]1O[C@H](COP(=O)(O)OP(=O)(O)OP(=O)(O)O)[C@@H](CF)[C@H]1O [Compound 326] | – | – | – | – | IC50 [5]: 1 to 10 µM |
| Nc1nc2c(ncn2[C@@H]2O[C@H](COP(=O)(O)OP(=O)(O)OP(=O)(O)O)[C@@H](CF)[C@H]2O)c(=O)[nH]1 [Compound 327] | – | – | – | – | IC50 [6]: < 0.25 µM; IC50 [5]: < 0.25 µM |
